In patent publication US9999601B2, “Composition and method for inhibition of nerve transmission” (NEUROQUEST INC., priority 2007, dated 2018):
Entries after “also recorded” stand apart in the source; their conditions may differ.

How the values were obtained:
[1] = target: delayed rectifier current (Ikv), specifically Ikv 1.5 subtype (Homo sapiens, UniProt P22460); experiment: Whole cell patch clamp recordings (K+ channels); assay type: cell-based; conditions: for inhibition of delayed rectifying potassium channels (in words): 10 ppm (10 mcmol or 10 ppm); for percent inhibition of the delayed rectifier potassium current: at a concentration of Geranium oil that gave 40% inhibition; for inhibition of delayed rectifying potassium channels, comparison in words: concentration not given
Method: Whole cell patch clamp recordings (Axopatch 200B) were made using borosilicate patch pipettes of resistance 3-8 MΩ with an intracellular solution utilizing potassium chloride as the current carrier. Current clamp recording were conducted holding the membrane potential at −60 mV to characterize the firing property of the cells. Voltage clamp was performed to investigate the delayed rectifier current (Ikv), specifically Ikv 1.5 subtype. Statistical significance was assessed using ANOVA followed by Duncan's multiple-range test with P<0.05 taken as indicating significance. […] A synthetic blend of geranium oil containing proportions of geraniol and citronellol similar to natural geranium oil, but with other components removed, was compared to the following ratios of geraniol:citronellol; 2:8, 3:7, 4:6 and geranium oil. The synthetic blend of geranium oil gave a 50% inhibition of the delayed rectifying potassium channel current compared to a 40% inhibition for natural geranium oil.

[2] = system: mouse hippocampal brain slice neurons (cortical neuron); experiment: Patch clamp electrophysiological studies of mouse hippocampal slices; assay type: cell-based; conditions: for inhibition of nerve transmission (in words): animal cortical nerve cells and dorsal root ganglion cells; for membrane currents, current-voltage relation (in words): bath-applied, 10 mV steps from −110 to −20 mV, FIG. 1, FIG. 2A-C
Method: Studies were conducted on mouse hippocampal brain slice preparations. In terms of the slice preparations, […] coronal brain slices were prepared from animals housed in a 12 hour light (ZT 0-12):12 hour dark (ZT 12-24) environment. Animals were anesthetized with isoflurane, decapitated, the brain rapidly removed and placed in ice cold, oxygenated (95% 02:5% C02), bicarbonate-buffered artificial cerebral spinal fluid (ACSF). A 1 cm^2 block of brain tissue containing the hippocampi was glued to a cutting surface and coronal slices were prepared using a Leica VT1000S microtome (Leica Microsystems). All slices were left to equilibrate for approximately one hour prior to the transfer to a recording chamber. Once transferred to the chamber, slices were continuously superfused with oxygenated ACSF at a rate of 3 ml/min @30° C. and recordings are generally made for the next 6-12 hours. Patch microelectrodes (5-8MΩ) made from borosilicate glass (Garner Glass Co.) and filled with K^+based internal patch solution composed of: (in mM) 120 K-acetate, 40 HEPES, 10 EGTA, 6 MgCl2, nystatin (450 μg/ml) or gramicidin B (5 μg/ml) and pluronic acid F127.
The perforated patch recording technique and will be used (Korn & Horn, 1989) and viable Hippocampal neurons were visually targeted using Infrared Differential Interference Contrast (IR-DIC) microscopy using a Leica DM LFSA scope. […] Recordings were made from 3 different patch rigs equipped with either […] patch clamp amplifiers interfaced via a Digidata 1322A to a PC computer or on, in terms of the studies performed on dissociated DRG neurons, a Zeiss Axoscop 200 inverted microscope equipped with an Axopatch 200B/Digidata 1322A using Pclamp 9.0 and Axoscope 9 software.
Test compounds were bath-applied by superfusion to examine for changes in excitability and/or attenuation of ion channels and the effects of compounds on evoked synaptic responses. Stimulating electrodes (concentric or bipolar) were placed within the slices and in accordance with the well known fiber tract pathways of passage for the
Superimposed responses to a series of 10 mV steps (250 ms) ranged from −110 to −20 mV are shown, (A) in control condition, (B) in presence of geraniol, and (C) after washout of the drug.
Typical response of a cortical neuron following a depolarizing current pulse of 0.4 nA is shown in FIGS. 2D, 2E and 2F, (D) in control condition, (E) in presence of geraniol, and (F) after recovery.
Mean current-voltage plots for 6 cortical neurons are plotted in FIG. 1.
Samples 1, 2 and 6 are examples of naturally-derived geranium oils; sample 3 is the synthetic composition as set out in Table 1, sample 4 is pure geraniol, sample 5 is pure citronellol and sample 4+5 is 50:50 (by volume) combination of geraniol and citronellol. Net current represents the difference between current measured in control condition and in presence of tested compound, in response to the same voltage step.

[3] = system: post herpetic neuralgia; experiment: Case study, post herpetic neuralgia, topical pure geraniol; assay type: in vivo, human; conditions: over 30 minutes after topical application; one subject
Source text: person, Ht 68 inches, Weight 162 lb. BMI 24.7. History of shingles 4 years prior to study with residual pain (post herpetic neuralgia). The subject tried Neurontin™ (Pfizer, U.S.) for 1 week with only some help and quit 3-4 years prior to this study.
They had moderate pain that made it hard to concentrate on things other than the pain. […] They could sleep, but had to keep changing positions to do so. They described the post-herpetic neuralgia as the worst thing to have happened to […]. The subject's pain decreased by 78% with pure geraniol over the course of 30 minutes after topical application as measured on a standard visual analog scale.

[4] = system: post-herpetic neuralgia; experiment: Human screening of synthetic geranium oil and geraniol in neuropathic pain (post-herpetic neuralgia); assay type: in vivo; conditions: topical pure geraniol, human neuropathic pain sufferers
Method: A synthetic blend of geranium oil (Table 1) was also tested in a panel of human neuropathic pain sufferers known to respond to naturally derived geranium oil. The geranium oil was topically applied in therapeutically effective amounts to areas of the human body affected with symptoms of neuropathic pain. Dosage amounts depended on the size of the patient's affected areas. […] Once administered, a typical positive response is a significant reduction in pain, often in minutes. A significant number of patients in the panel of neuropathic pain sufferers preferred the pain relieving effects of the synthetic blend of geranium oil, with known purified constituents, over the natural geranium oil.
Since natural geranium oil relieves neuropathic pain and inhibits the delayed rectifying potassium channel, and since synthetic geranium oil, geraniol, and citronellol all inhibit the delayed rectifying potassium channel, synthetic geranium oil and geraniol were tested on patients with post-herpetic neuralgia. A synthetic blend of geranium oil was tested in patients with post-herpetic neuralgia that were positive responders to natural geranium oil. […] Pure geraniol was then tested in these subjects.

delayed rectifier current (Ikv), specifically Ikv 1.5 subtype, sequence (P22460 whole entry): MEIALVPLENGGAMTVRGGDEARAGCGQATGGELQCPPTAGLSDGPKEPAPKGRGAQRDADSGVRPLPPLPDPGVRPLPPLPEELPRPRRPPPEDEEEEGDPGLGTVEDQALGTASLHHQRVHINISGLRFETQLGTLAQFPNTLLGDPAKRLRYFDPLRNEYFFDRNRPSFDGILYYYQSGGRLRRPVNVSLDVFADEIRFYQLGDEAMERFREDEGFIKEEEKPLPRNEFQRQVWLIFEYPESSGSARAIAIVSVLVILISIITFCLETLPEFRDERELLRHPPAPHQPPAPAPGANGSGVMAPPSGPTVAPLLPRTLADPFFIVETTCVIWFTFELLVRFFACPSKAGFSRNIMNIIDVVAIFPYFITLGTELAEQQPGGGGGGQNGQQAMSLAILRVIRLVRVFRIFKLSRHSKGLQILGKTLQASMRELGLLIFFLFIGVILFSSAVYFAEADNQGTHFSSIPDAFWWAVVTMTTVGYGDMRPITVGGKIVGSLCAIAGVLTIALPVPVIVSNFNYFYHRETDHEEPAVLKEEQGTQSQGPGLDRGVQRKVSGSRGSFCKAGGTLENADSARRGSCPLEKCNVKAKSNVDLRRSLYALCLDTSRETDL

`C=C(C)C1CC=C(C)C(=O)C1` (centres unmarked) [carvone, Carvone] was tested, and the “inhibition of delayed rectifying potassium channels (in words)” value [1] was “positive” and the “percent inhibition of the delayed rectifier potassium current” value (“percent inhibition” for short) [1] was 22%.
For `CC(C)=CCCC(C)CCO` (centres unmarked) [citronellol, 3,7-dimethyloct-6-en-1-ol], the “inhibition of delayed rectifying potassium channels (in words)” value [1] was “positive”, the “percent inhibition” value [1] was 27% and the “inhibition of delayed rectifying potassium channels, comparison in words” value [1] was “highest amount of inhibition; also recorded: highest activity”. The “inhibition of nerve transmission (in words)” value [2] was “effectively inhibit nerve transmission”.
In the case of `CC(C)=CCC/C(C)=C/CO` [geraniol, 2,6-Octadien-1-ol, 3,7-dimethyl-, (2E)-], the “inhibition of delayed rectifying potassium channels (in words)” value [1] was “positive”, the “percent inhibition” value [1] was 26% and the “inhibition of delayed rectifying potassium channels, comparison in words” value [1] was “highest amount of inhibition; also recorded: highest activity”. For the same compound, the “inhibition of nerve transmission (in words)” value [2] was “effectively inhibit nerve transmission”, the “membrane currents, current-voltage relation (in words)” value (“membrane currents” for short) [2] was “reduction in the membrane current amplitude; also recorded: reduction of membrane currents” and the “membrane currents” value ([2]; listed as geraniol (test compound #4)) was “reduction of membrane currents”. The “membrane currents” value ([2]; listed as sample #4 (Geraniol)) was “reduction of membrane currents”, the “net current reduction, rank among tested samples” value ([2]; most negative voltage step (−110 mV), FIG. 3) was “greatest inhibition” and the “action potentials (in words)” value ([2]; voltage steps or depolarizing current pulse of 0.4 nA, FIG. 2) was “inhibition of action potential”. The “decrease of pain on visual analog scale” value [3] was 78% and the “neuropathic pain relief (in words)” value [4] was “almost immediate pain relief; also recorded: greatest effect on neuropathic pain relief”.
`C=CC(C)(O)CCC=C(C)C` (centres unmarked) [linalool, Linalool] was tested, and the “inhibition of delayed rectifying potassium channels (in words)” value [1] was “positive” and the “percent inhibition” value [1] was 18%.
With `CC(C)[C@@H]1CC[C@@H](C)CC1=O` [menthone, Menthone] the “inhibition of delayed rectifying potassium channels (in words)” value [1] was “positive” and the “percent inhibition” value [1] was 22%.
For `CC(C)=CC1CC(C)CCO1` (centres unmarked) [rose oxide, Rose Oxide], the “inhibition of delayed rectifying potassium channels (in words)” value [1] was “positive” and the “percent inhibition” value [1] was 14%.
